Data set [1] concerns the target T1, Human recombinant monoamine oxidase B (Homo sapiens, UniProt P27338).
T1 construct: host or cells: Sf9 cells
T1 sequence (P27338 1-520): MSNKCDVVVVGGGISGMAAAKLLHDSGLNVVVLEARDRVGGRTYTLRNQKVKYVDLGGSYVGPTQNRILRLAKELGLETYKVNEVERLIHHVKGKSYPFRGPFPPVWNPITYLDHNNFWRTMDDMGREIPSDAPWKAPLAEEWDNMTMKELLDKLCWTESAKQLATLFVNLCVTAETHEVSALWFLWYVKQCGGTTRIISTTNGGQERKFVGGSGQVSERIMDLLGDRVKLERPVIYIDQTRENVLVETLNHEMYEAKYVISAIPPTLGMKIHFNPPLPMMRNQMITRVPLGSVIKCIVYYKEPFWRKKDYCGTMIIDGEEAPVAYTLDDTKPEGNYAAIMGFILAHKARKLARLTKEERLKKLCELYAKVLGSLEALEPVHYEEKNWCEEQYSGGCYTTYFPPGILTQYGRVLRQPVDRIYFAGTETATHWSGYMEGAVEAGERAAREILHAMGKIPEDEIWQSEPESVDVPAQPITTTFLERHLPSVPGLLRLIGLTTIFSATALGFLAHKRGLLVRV
Nature of the data set: Inhibitory effect on the activity of monoamine oxidase B. The class given is biochemical. To be noted: human recombinant MAO-B, substrate benzylamine hydrochloride. As to the method:
Human recombinant monoamine oxidase B expressed in Sf9 cells was used in the test system. In the experiment, firstly, the recombinant monoamine oxidase B was dissolved in the pre-configured HEPES buffer (0.8% NaCl, 0.037% KCl, 0.0135% Na2HPO4.2H2O, 0.1% Glucan, 0.5% HEPES, pH=7.0) at a concentration of 0.3 μg/μL. To each well of a 384-well plate was added 10 μL of monoamine oxidase B solution, and the test compound with different concentrations (the final concentration of DMSO was 1%) (10 gradient concentrations were 10 mM, 1 mM, 100 μM, 10 μM, 1 μM, 100 nM, 10 nM, 1 nM, 0.1 nM, 0.01 nM) were added into the wells respectively. The standard reference compound was R-(−)-Deprenyl, the plate was incubated at room temperature for 15 min. Then, each well filled with 10 μL substrate solution (Benzylamine hydrochloride, 1 mM) was incubated at room temperature for 60 min. Then 20 μL of fluorescein detection reagent was added to each well, which was fully blended and incubated at room temperature for 20 minutes to produce stable fluorescence signal. The fluorescence signal was read by fluorescein labeling instrument, and the value was expressed by relative light intensity (RLU). The inhibitory rate on enzyme activity was calculated according to the experimental results, the calculated formula: Inh %=(Max−Signal)/(Max−Min)*100, wherein Max was the detected value at the maximum concentration of the sample, Min was the detected value at the minimum concentration of the sample, and Signal was the detected value at the current concentration of the sample.
The standard curve was obtained through the series concentration by experimental test to calculate the IC50.

The nature of data set [2]: Pharmacokinetic evaluation after intravenous or gavage administration in dogs. It is filed as in vivo, Beagle dogs. To be noted: for AUC(0-inf) / AUC(0-t) / Cmax / MRT inf / Tmax / clearance / half-life: beagle, dog, plasma. As to the method: The LC-MS/MS system comprises Agilent 1200 series vacuum degassing furnace, quaternary pumps, well-plate autosampler, thermostatted column compartment, the API4000Qtrap Triple Quadrupole Mass Spectrometer with an electrospray ionization (ESI) source. Quantitative analysis was carried out using MRM mode. The parameters for MRM transitions are in Table 2.
Analysis was carried out on waters xbridge C18 (2.1×50 mm, […] column, 0.5 μL of sample), the analytic conditions are mobile phases cosisting of water+2 mM ammonium formate+0.1% formic acid (Phase A) and methanol+2 mM ammonium formate+0.1% formic acid (Phase B). The flow rate was 0.4 mL/min. And the gradient of Mobile phase was in Table 3.
Each animal species was divided into two groups: one was administered intravenously and the other was administered intragastrically. The compounds disclosed herein were administered in form of a solution containing 5% DMSO+5% Kolliphor HS15+90% Saline. For the group of intravenous administration, the administration dose was 1 mg/kg, and vein blood samples (0.3 ml) were collected at the time points of 0.083, 0.25, 0.5, 1.0, 2.0, 4.0, 6.0, 8.0 and 24 h after drug administration, then plasma solutions were collected by centrifuging each blood sample at 3000 rpm or 4000 rpm for 10 minutes and kept at −20° C. or −70° C. For the group of intragastric administration, the administration dose was 5 mg/kg, and vein blood samples (0.3 mL) were collected at the time points of 0.25, 0.5, 1.0, 2.0, 4.0, 6.0, 8.0 and 24 h after drug administration, then plasma solutions were collected by centrifuging each blood sample at 3000 rpm or 4000 rpm for 10 minutes and kept at −20° C. or −70° C.
20 μL of plasma was blended with 120 μl, 50 ng/ml propranolol standard water solution, then the mixture was extracted with 1.0 mL methyl tert-butyl ether (MTBE), 0.7 mL of supernatant was dried by blow with nitrogen and then dissolved again with 220 μL methanol water (methanol/water (v/v)=1/1). LC-MS/MS method was used to detect the concentration of the target compounds, and […] was used to calculate the pharmacokinetic parameters.

Molecules are shown by their SMILES.

As usually defined, the IC50 is the concentration at which inhibition is half-maximal. The term AUC(0-inf) denotes the area under the concentration-time curve extrapolated to infinity. A low value points to low exposure. By AUC(0-t) is commonly meant exposure summed from dosing to a finite time, without extrapolation to infinity. A low value points to less exposure. A word on the Cmax: it is the maximum level reached in the sampled fluid or tissue. For orientation: MRT inf means a mean duration of stay, worked out from the concentration-time curve. A word on the Tmax: it is the time from dosing to the highest level. As usually defined, the half-life is the time in which the quantity being followed falls by half. Lower therefore signals fast loss. On to `NC(=O)[C@@H]1C[C@H](F)CN1Cc1ccc(OCc2cccc(F)c2)cc1F` [Example 3, (2S,4S)-4-fluoro-1-(2-fluoro-4-(3-fluorobenzyloxy)benzyl)pyrrolidine-2-formamide], for which, in data set [1], the IC50 worked out at 30 nM. In addition, in data set [2] (iv, i.v group, 1 mg/kg), the AUC(0-inf) worked out at 979 ng·h/mL, the exposure AUC(0-t) was 977 ng·h/mL, the Cmax came out at 1490 ng/mL and the MRT inf is 0.871 h. Moreover, in data set [2] (iv, i.v group, 1 mg/kg), the Tmax was found to be 4.98 min, the clearance is 17 mL/min/kg and the half-life was 67.8 min. In data set [2] (po, i.g group, 5 mg/kg), this molecule gave an AUC(0-inf) of 2450 ng·h/mL, an AUC(0-t) of 2440 ng·h/mL, a Cmax of 1380 ng/mL and an MRT inf of 1.44 h. For the same molecule, in data set [2] (po, i.g group, 5 mg/kg), the Tmax was found to be 30 min and the half-life is 65.4 min. Further, the F in data set [2] (i.g group, 5 mg/kg) is 50.1%.
Regarding `NC(=O)[C@@H]1C[C@H](F)CN1Cc1ccc(OCc2cccc(F)c2)cc1` [Example 1, (2S,4S)-4-fluoro-1-(4-(3-fluorobenzyloxy)benzyl)pyrrolidine-2-formamide], in data set [1], the IC50 is 19 nM. In data set [2] (iv, i.v group, 1 mg/kg), the AUC(0-inf) turned out to be 1500 ng·h/mL, the AUC(0-t) is 1480 ng·h/mL, the Cmax is 1230 ng/mL and the MRT inf is 2.77 h. Besides, in data set [2] (iv, i.v group, 1 mg/kg), the Tmax was 4.98 min, the clearance stood at 11.1 mL/min/kg and the half-life was 303 min. Also, in data set [2] (po, i.g group, 5 mg/kg), the AUC(0-inf) worked out at 4990 ng·h/mL, the exposure AUC(0-t) turned out to be 4930 ng·h/mL, the Cmax was determined as 1730 ng/mL and the MRT inf is 2.98 h. In data set [2] (po, i.g group, 5 mg/kg), the time of peak concentration (Tmax) amounted to 50 min and the half-life was 196 min. The same molecule registered a F in data set [2] (i.g group, 5 mg/kg) of 66.5%.

(Values after patent publication US11225460B2, “Pyrrolidineamide derivatives and uses thereof” (SUNSHINE LAKE PHARMA CO., LTD., priority 2019, dated 2022).)
